Measured values from ChEMBL document CHEMBL1135203, “Benzodiazepine inhibitors of the MMPs and TACE” (Bioorg Med Chem Lett, 2002).
Activity calls are given as the source filed them. No cut-off for these calls is given here.

Experiments:
THP-1 = assay: Compound was tested for its ability to inhibit TNF-alpha in a cellular assay using THP-1 cells at 3 uM; format: functional; conditions: Homo sapiens
Collagenase 3 = Collagenase 3 (Homo sapiens, UniProt P45452); assay: Concentration required in vitro to inhibit Matrix metalloprotease-13
[1] = biological target: Disintegrin and metalloproteinase domain-containing protein 17 (Homo sapiens, UniProt P78536); assay: Concentration required in vitro to inhibit TNF-alpha converting enzyme (TACE)
Chain of Disintegrin and metalloproteinase domain-containing protein 17 (P78536 whole entry, the tested form may be a part): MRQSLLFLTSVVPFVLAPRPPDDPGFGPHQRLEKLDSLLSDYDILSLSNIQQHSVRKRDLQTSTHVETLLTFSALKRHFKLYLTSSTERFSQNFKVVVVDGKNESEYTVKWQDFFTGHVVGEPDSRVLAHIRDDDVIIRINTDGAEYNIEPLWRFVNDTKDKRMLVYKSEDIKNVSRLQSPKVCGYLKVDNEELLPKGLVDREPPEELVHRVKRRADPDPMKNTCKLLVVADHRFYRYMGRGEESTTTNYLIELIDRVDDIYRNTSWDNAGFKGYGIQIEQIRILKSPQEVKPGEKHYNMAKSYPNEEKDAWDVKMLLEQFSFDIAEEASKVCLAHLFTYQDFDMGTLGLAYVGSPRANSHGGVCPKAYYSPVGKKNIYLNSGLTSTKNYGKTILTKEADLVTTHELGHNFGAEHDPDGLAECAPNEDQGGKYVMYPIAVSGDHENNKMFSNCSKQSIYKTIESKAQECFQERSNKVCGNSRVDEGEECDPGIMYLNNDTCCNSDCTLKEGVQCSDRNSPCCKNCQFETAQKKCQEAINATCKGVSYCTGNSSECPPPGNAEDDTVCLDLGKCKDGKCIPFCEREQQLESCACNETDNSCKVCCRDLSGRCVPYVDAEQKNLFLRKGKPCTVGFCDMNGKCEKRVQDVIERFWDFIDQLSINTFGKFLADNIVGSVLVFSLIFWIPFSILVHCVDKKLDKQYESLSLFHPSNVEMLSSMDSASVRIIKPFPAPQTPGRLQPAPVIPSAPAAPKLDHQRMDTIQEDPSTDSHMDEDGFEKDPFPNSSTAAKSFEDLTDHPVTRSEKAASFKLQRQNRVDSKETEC

[2] = biological target: Matrix metalloproteinase-9 (Homo sapiens, UniProt P14780); assay: Concentration required in vitro to inhibit Matrix metalloprotease-9
Chain of Matrix metalloproteinase-9 (P14780 whole entry): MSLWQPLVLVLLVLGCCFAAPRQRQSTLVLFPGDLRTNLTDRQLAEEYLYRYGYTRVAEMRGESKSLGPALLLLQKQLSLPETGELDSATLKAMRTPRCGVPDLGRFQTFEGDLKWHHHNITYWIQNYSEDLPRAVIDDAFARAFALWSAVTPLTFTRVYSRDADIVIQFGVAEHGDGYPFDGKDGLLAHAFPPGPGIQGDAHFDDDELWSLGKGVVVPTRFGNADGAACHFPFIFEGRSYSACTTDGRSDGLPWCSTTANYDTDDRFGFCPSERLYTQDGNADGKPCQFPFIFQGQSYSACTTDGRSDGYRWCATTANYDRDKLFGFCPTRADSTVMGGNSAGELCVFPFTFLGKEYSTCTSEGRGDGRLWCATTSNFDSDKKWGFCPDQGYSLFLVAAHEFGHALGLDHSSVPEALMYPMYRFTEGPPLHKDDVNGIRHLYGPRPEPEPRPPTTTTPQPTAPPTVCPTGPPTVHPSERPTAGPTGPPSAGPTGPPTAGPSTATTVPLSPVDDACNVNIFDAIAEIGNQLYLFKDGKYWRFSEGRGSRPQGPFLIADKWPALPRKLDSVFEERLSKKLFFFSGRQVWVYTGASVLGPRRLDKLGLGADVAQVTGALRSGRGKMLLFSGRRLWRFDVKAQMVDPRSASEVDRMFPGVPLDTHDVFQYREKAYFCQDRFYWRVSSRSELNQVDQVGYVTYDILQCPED

Interstitial collagenase = biological target: T1, Interstitial collagenase (Homo sapiens, UniProt P03956); assay: Concentration required in vitro to inhibit Matrix metalloprotease-1
T1 sequence (P03956 whole entry): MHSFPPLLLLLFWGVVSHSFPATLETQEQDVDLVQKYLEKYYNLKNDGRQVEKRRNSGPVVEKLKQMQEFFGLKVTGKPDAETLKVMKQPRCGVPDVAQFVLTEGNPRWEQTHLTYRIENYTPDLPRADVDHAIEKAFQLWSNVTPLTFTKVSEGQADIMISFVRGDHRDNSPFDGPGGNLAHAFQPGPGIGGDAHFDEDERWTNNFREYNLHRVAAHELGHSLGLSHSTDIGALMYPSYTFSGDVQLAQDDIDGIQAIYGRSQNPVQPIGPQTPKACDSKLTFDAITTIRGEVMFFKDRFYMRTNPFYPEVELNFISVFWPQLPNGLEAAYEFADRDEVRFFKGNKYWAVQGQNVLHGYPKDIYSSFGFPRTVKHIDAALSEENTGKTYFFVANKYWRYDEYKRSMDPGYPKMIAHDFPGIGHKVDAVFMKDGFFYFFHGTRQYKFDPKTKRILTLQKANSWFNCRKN

Rattus norvegicus [3] = species on record: Rattus norvegicus; assay: Dialysis activity is detected at a dose of 50 mpk; IA denotes inactive; format: functional, organism-based
Bos taurus [4] = species on record: Bos taurus; assay: Compound was tested for inhibition of cartilage degradation using bovine cartilage explant model; format: functional, Cartilage tissue
Rattus norvegicus [5] = species on record: Rattus norvegicus; assay: Dialysis activity is detected at a dose of 50 mpk; format: functional
Bos taurus [6] = species on record: Bos taurus; assay: Inhibition of cartilage degradation by the compound was detected using bovine cartilage explant model at 1 uM; format: functional, Cartilage tissue
Rattus norvegicus [7] = assay: Dialysis activity is detected at a dose of 50 mpk after 2 hr of ip administration; format: functional; parameters: unit not given here
Rattus norvegicus [8] = assay: Dialysis activity is detected at a dose of 50 mpk after 1 hr of po administration; format: functional; parameters: unit not given here
Rattus norvegicus [9] = assay: Dialysis activity is detected at a dose of 50 mpk after 1 hr of ip administration; format: functional

Structure (SMILES) | IC50 (Collagenase 3) | IC50 [2] | IC50 [1] | IC50 (Interstitial collagenase) | further results
CC#CCOc1ccc(S(=O)(=O)N2Cc3ccccc3N(S(C)(=O)=O)CC2C(=O)NO)cc1 (stereo unspecified) | 34.6 nM | 95.5 nM | 20 nM | 260 nM | inhibition at 3 µM (THP-1): 44%
COCC(=O)N1CC(C(=O)NO)N(S(=O)(=O)c2ccc(Oc3ccc(Cl)cc3)cc2)Cc2ccccc21 (stereo unspecified) |  |  | 157 nM | 61 nM | IA (Rattus norvegicus [3]): inactive
COc1ccc(S(=O)(=O)N(Cc2cccnc2)[C@@H](C(=O)NO)C(C)C)cc1.Cl [CGS-27023A] |  |  |  |  | Inhibition (Bos taurus [4]): 63%; Activity (Rattus norvegicus [5]): 1; Activity (Bos taurus [6]): 1
CC#CCOc1ccc(S(=O)(=O)N2Cc3ccccc3N(C(C)=O)CC2C(=O)NO)cc1 (stereo unspecified) |  |  |  |  | inhibition at 3 µM (THP-1): 60%
COCC(=O)N1CC(C(=O)NO)N(S(=O)(=O)c2ccc(Oc3ccncc3)cc2)Cc2ccccc21 (stereo unspecified) | 2 nM | 2 nM | 157 nM | 763 nM | Activity (Rattus norvegicus [8]): 0.32
O=C(NO)C1CN(C(=O)c2ccccc2)c2ccccc2CN1S(=O)(=O)c1ccc(Oc2ccc(Cl)cc2)cc1 (stereo unspecified) |  |  | 528 nM | 59 nM | 
CCOc1ccc(C(=O)N2CC(C(=O)NO)N(S(=O)(=O)c3ccc(OC)cc3)Cc3ccccc32)cc1 (stereo unspecified) | 2 nM | 2 nM |  | 24 nM | 
O=C(NO)C1CN(C(=O)c2cccs2)c2ccccc2CN1S(=O)(=O)c1ccc(Oc2ccc(Cl)cc2)cc1 (stereo unspecified) | 4 nM | 2 nM | 254 nM | 35 nM | 
COc1ccc(S(=O)(=O)N2Cc3ccccc3N(C(=O)C3CC3)CC2C(=O)NO)cc1 (stereo unspecified) |  |  |  |  | Activity (Rattus norvegicus [8]): 0.49; Activity (Rattus norvegicus [9]): 0.8
COc1ccc(S(=O)(=O)N2Cc3ccccc3N(C(=O)CCc3ccccc3)CC2C(=O)NO)cc1 (stereo unspecified) |  |  |  |  | Activity (Rattus norvegicus [7]): 0.22
CC#CCOc1ccc(S(=O)(=O)N2Cc3ccccc3N(C(=O)C3CC3)CC2C(=O)NO)cc1 (stereo unspecified) | 29 nM | 33 nM | 10 nM | 841 nM | inhibition at 3 µM (THP-1): 59%
COc1ccc(S(=O)(=O)N2Cc3ccccc3N(C(C)=O)CC2C(=O)NO)cc1 (stereo unspecified) |  |  |  | 18 nM | Activity (Rattus norvegicus [8]): 0.9; Activity (Rattus norvegicus [7]): 1.7

Now from value to molecule, other results behind:

IC50 (Collagenase 3) | IC50 [2] | Structure (SMILES) | IC50 [1] | IC50 (Interstitial collagenase) | further results
2 nM | 4 nM | COc1ccc(S(=O)(=O)N2Cc3ccccc3N(C(=O)c3cc(F)ccc3C)CC2C(=O)NO)cc1 (stereo unspecified) |  |  | 
9.5 nM |  | CC#CCOc1ccc(S(=O)(=O)N2Cc3ccccc3N(C(=O)c3ccccc3)CC2C(=O)NO)cc1 (stereo unspecified) |  |  | inhibition at 3 µM (THP-1): 25%
1 nM |  | COc1ccc(S(=O)(=O)N2Cc3ccccc3N(C(=O)c3cccs3)CC2C(=O)NO)cc1 (stereo unspecified) |  | 20 nM | Activity (Bos taurus [6]): 1.2; Activity (Rattus norvegicus [7]): 1.1
 | 0.6 nM | COc1ccc(S(=O)(=O)N2Cc3ccccc3N(C(=O)c3ccccc3)CC2C(=O)NO)cc1 (stereo unspecified) |  |  | Inhibition (Bos taurus [4]): 46.3%; Activity (Bos taurus [6]): 0.73; Activity (Rattus norvegicus [7]): 1.2
 | 13 nM | COc1ccc(S(=O)(=O)N2Cc3ccccc3N(C(=O)C3CCCCC3)CC2C(=O)NO)cc1 (stereo unspecified) |  |  | Activity (Rattus norvegicus [8]): 0.47
 | 8 nM | COc1ccc(S(=O)(=O)N2Cc3ccccc3N(S(C)(=O)=O)CC2C(=O)NO)cc1 (stereo unspecified) |  |  | 
2 nM | 2 nM | COCC(=O)N1CC(C(=O)NO)N(S(=O)(=O)c2ccc(OC)cc2)Cc2ccccc21 (stereo unspecified) |  |  | Activity (Bos taurus [6]): 2.5; Activity (Rattus norvegicus [8]): 1
